The subject of data set [1] is Sarcoma-180. Briefly: antitumor activity against subcutaneous Sarcoma-180 in mice, tail vein administration (Pharmacological Test II). The data set is classed as in vivo, ICR mice. The following applies: Mus musculus, Sarcoma-180, iv, 240 h, once a day for 7 consecutive days, tumor weight on 10th day, read-out: ED50 (50% tumor inhibition dose, T/C = 0.5). How it is done:
Sarcoma-180 subcultured in ascites of ICR mice was diluted with a physiological saline and subcutaneously transplanted into the backs of ICR mice in an amount of 2×10^7 cells each. Twenty-four hours after the transplantation, a test compound dissolved in sterilized physiological saline was administered to the tail vein of each of the mice once a day for 7 consecutive days. The solid tumor was isolated from under the dorsal skin of mice on the 10th day after the transplantation to measure the weight of the tumor. There was determined the ratio (T/C) of the weight of tumor (T) of the test compound group to the weight of tumor (C) of the control group. The 50% tumor inhibition dose (ED50 value) in which T/C is 0.5 was determined from the dose response curve of dosage and the ratio (T/C).

In data set [2] the test system is Sarcoma-180. The data set can be described thus: antitumor activity against subcutaneous Sarcoma-180 in mice, oral administration (Pharmacological Test I). Type of data set: in vivo, male mice of ICR/JCL strain. The conditions noted are these: for ED50: Mus musculus, Sarcoma-180, 240 h, once a day for 7 consecutive days, tumor weight on 10th day, read-out: ED50 (effective dose for achieving 50% cancer inhibition). How it is done: (§1) Tissues of Sarcoma-180 were subcutaneously transplanted into the back of male mice of ICR/JCL strain (weighing 27 to 30 g) in an amount of 5×10^6 cells each. The test compound was administered in the form of a weakly acidic aqueous solution. The solution was orally given to each mouse (7 mice in each group) in a dose of 1.0 ml/100 g body weight once a day for 7 consecutive days starting 24 hours after the transplantation, and a weakly acidic aqueous solution containing no test compound was orally administered to the control group in an amount of 1.0 ml/100 g body weight once a day for 7 consecutive days starting 24 hours after the transplantation.
(§2) The tumor was removed from the body on the 10the day after the transplantation and weighed to calculate the average weight of the tumors in the group to which the test compound-containing solution was given and the corresponding weight in the control group. The effective dose (ED50) for achieving 50% cancer inhibition was determined from the dose-response curve. The dose of 50% inhibition of body weight gain (IB50) was determined from the dose-body weight change curve. The therapeutic index (T.I. =IB50/ ED50) was determined with the results shown below in Table 6.

Data set [3] in a line: inhibition of body weight gain in Sarcoma-180 bearing mice, oral administration (Pharmacological Test I). The data set is classed as in vivo, male mice of ICR/JCL strain. The conditions noted are these: once a day for 7 consecutive days. Here is the method:
as §1, §2

Where [4] appears, read: compared with O^3' -p-chlorobenzyl-2'-deoxy-5-fluorouridine.

As to `NCC(=O)OC[C@H]1O[C@@H](n2cc(F)c(=O)[nH]c2=O)C[C@@H]1OCc1ccc(Cl)cc1` [Compound 28], in the data set with Sarcoma-180 [1], the ED50 was 1 mg/kg. Take `O=c1[nH]c(=O)n([C@H]2C[C@H](OCc3ccc(Cl)cc3)[C@@H](CO)O2)cc1F` [O^3' -p-chlorobenzyl-2'-deoxy-5-fluorouridine, reference compound]: in the data set with Sarcoma-180 [2], the “T.I. (therapeutic index = IB50/ED50)” value came out at 1.64 and the ED50 amounted to 0.94 mg/kg. Also, the “IB50 (dose of 50% inhibition of body weight gain)” value in data set [3] is 1.54 mg/kg/day. On to `CC(C)[C@H](N)C(=O)OC[C@H]1O[C@@H](n2cc(F)c(=O)[nH]c2=O)C[C@@H]1OCc1ccc(Cl)cc1` [Compound 13], for which, in the data set on Sarcoma-180 [1], the ED50 came to 1.5 mg/kg. Same read-out and setting: then `C[C@H](N)C(=O)OC[C@H]1O[C@@H](n2cc(F)c(=O)[nH]c2=O)C[C@@H]1OCc1ccc(Cl)cc1` [Compound 22], with 1 mg/kg. Regarding `NCC(=O)OC[C@H]1O[C@@H](n2cc(F)c(=O)[nH]c2=O)C[C@@H]1OCc1ccc(Cl)cc1` [Compound 12], in the data set on Sarcoma-180 [2], the “T.I. (therapeutic index = IB50/ED50)” value came out at 4.80 and the ED50 came out at 0.75 mg/kg. Besides, in the data set with Sarcoma-180 [2] (setting [4]), the “anti-cancer effect in words” value is listed as “superior in anti-cancer effect”, the efficacy in words result is listed as “higher in efficacy” and the “therapeutic index in words” value is reported as “greater in therapeutic index”. In data set [3], the “IB50 (dose of 50% inhibition of body weight gain)” value was 3.60 mg/kg/day. On to `NCC(=O)OC[C@H]1O[C@@H](n2cc(F)c(=O)[nH]c2=O)C[C@@H]1OCc1ccc(Cl)cc1Cl` [Compound 19], for which the ED50 in the data set with Sarcoma-180 [1] is 0.8 mg/kg.

Take `Cl.NCC(=O)OC[C@H]1O[C@@H](n2cc(F)c(=O)[nH]c2=O)C[C@@H]1OCc1ccc(Cl)cc1` [Example 8 (E), 3'-O-(4-chlorobenzyl)-2'-deoxy-5-fluoro-5'-O-glycyluridine hydrochloride]: the ED50 in the data set on Sarcoma-180 [1] was 1 mg/kg. Same read-out and setting: the result for `CC(C)C[C@H](N)C(=O)OC[C@H]1O[C@@H](n2cc(F)c(=O)[nH]c2=O)C[C@@H]1OCc1ccc(Cl)cc1` [Compound 14] reads 1.5 mg/kg.

These data come from patent US4946951A, “2'-deoxy-5-fluorouridine derivatives” (Taiho Pharmaceutical Co., Ltd., priority 1987, dated 1990).
